From patent US5747235A, “Silver halide light sensitive emulsion layer having enhanced photographic sensitivity” (Eastman Kodak Company, priority 1996, dated 1998)
Where a name gives a salt, the structure may show the parent alone. Read-outs that look alike come from different tables or passages of the source.

Assays:
[1] = known acceptors used in flash photolysis; cited from earlier work
[2] = oxidation potential E1 by cyclic voltammetry; assay type: physicochemical
In short: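 Compound in 80:20 (v/v) acetonitrile/water with 0.1M lithium perchlorate, nitrogen-purged 10 minutes. Glassy carbon working, platinum wire counter and saturated calomel reference electrodes; 25° C, sweep rate 0.1 V/sec. E1 is the voltammetric peak potential vs. SCE.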

[3] = oxidation potential E2 of radical X by laser flash photolysis; assay type: physicochemical; conditions: Table H; model compound, A and L replaced by alkyl
In short: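 Radical X· generated by fragmentation of X-Y·+, formed via 410 nm laser-excited cyanoanthracene (ca. 2×10^-5–10^-4 M) with biphenyl (ca. 0.1 M) cosensitiser and X-Y (ca. 10^-3 M) in acetonitrile or 80:20 acetonitrile/water. E2 bracketed by observing second-acceptor reduction (DCA −0.91 V, TriCA −0.67 V, TCA −0.44 V) by transient absorption near 705–715 nm.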

[4] = fragmentation rate constant kfr by laser flash photolysis; assay type: physicochemical; conditions: Table H; model compound, A and L replaced by alkyl
In short: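 DCA excited by laser in presence of biphenyl and ca. 10^-2 M donor generates X-Y radical cation; its decay was monitored at mostly 470-530 nm. Run in acetonitrile with 20% water, mostly at room temperature, some rates extrapolated from temperature dependence; oxygen purging used for decays below 10^6 s^-1.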

[5] = Example 2: photographic speed and fog, 365 nm exposure, acids vs corresponding esters, emulsion T-1; design: Fog: unit not given here; conditions: for Fog / S365: undyed; for S365: control=100
Description: This chemically sensitized emulsion was then used to prepare the experimental coating variations indicated in Table I. All of the experimental coating variations in Table I contained the hydroxybenzene 2,4-disulfocatechol (HB3) at a concentration of 13 mmole/mole Ag, added to the melt before the addition of any further addenda. The fragmentable electron donor compounds as indicated in Table I were added from an aqueous potassium bromide solution, or from a methanol solution, before additional water, gelatin, and surfactant were added to the emulsion melts.
For photographic evaluation, each of the coating strips was exposed for 0.1 sec to a 365 nm emission line of a Hg lamp filtered through a Kodak Wratten filter number 18A and a step wedge ranging in density from 0 to 4 density units in 0.2 density steps. The exposed film strips were developed for 6 min in Kodak Rapid X-ray Developer (KRX). S365, relative sensitivity at 365 nm, was evaluated at a density of 0.2 units above fog.
The coatings described in Table II all contain the hydroxybenzene, 2,4-disulfocatechol (HB3) at a concentration of 13 mmole/mole Ag, added to the melt before any further addenda.

[6] = Example 10: photographic sensitivity and fog, color format, blue sensitized emulsion T-2; conditions: for Photographic Sensitivity SWR2B: control=100
Description: The hydroxybenzene, 2,4-disulfocatechcol (HB3) at a concentration of 13×10^-3 mole/mole Ag was added to the emulsion melt before the start of the chemical sensitization procedure. […] The fragmentable two-electron donors S-3, S-9, S-6, or S-8 were then added to the emulsion melt.
The melts were prepared for coating by adding additional water, deionized gelatin and coating surfactants. Coatings were prepared by combining the emulsion melts with a melt containing deionized gelatin and an aqueous dispersion of the cyan-forming color coupler CC-1 and coating the resulting mixture on acetate support. […] The structure of the color coupler CC-1 is given below: [drawing 120]
(§1) For photographic evaluation, each of the coating strips was exposed for 0.01 sec to a 3000K color temperature tungsten lamp filtered to give an effective color temperature of 5500K and further filtered through a Kodak Wratten filter number 2B, and a step wedge ranging in density from 0 to 4 density units in 0.20 density steps. This exposure gives light absorbed mainly by the blue sensitizing dye. The exposed film strips were developed for 31/4 minutes in Kodak C-41 color developer. SWR2B, relative sensitivity for this filtered exposure, was evaluated at a cyan density of 0.15 units above fog.

[7] = Example 15: photographic sensitivity and fog, color format, blue sensitized emulsion T-2; conditions: for Photographic Sensitivity SWR2B: control=100
Description: (§2) The AgBrI tabular silver halide emulsion T-2 from Example 3 was optimally chemically and spectrally sensitized by adding NaSCN, 1.07 mmole of the blue sensitizing dye D-I per mole of silver, Na3 Au(S2 O3)2 ·2H2 O, Na2 S2 O3 ·5H2 O, and a benzothiazolium finish modifier and then subjecting the emulsion to a heat cycle to 65° C. The hydroxybenzene, 2,4-disulfocatechcol (HB3) at a concentration of 13×10^-3 mole/mole Ag was added to the emulsion melt before the start of the chemical sensitization procedure. This chemically sensitized emulsion was then used to prepare the experimental coating variations given in Table X. For all the variations in Table X, the antifoggant and stabilizer tetraazaindene (TAI) was added to the emulsion melt in an amount of 1.75 g/mole Ag before any further addenda. The fragmentable two-electron donors S-3, S-9, S-6, or S-8 were then added to the emulsion melt.
(§3) The melts were prepared for coating by adding additional water, deionized gelatin and coating surfactants. Coatings were prepared by combining the emulsion melts with a melt containing deionized gelatin and an aqueous dispersion of the cyan-forming color coupler CC-1 and coating the resulting mixture on acetate support. The final coatings contained Ag at 0.81 g/m^2, coupler at 1.61 g/m^2, and gelatin at 3.23 g/m^2. The coatings were overcoated with a protective layer containing gelatin at 1.08 g/m^2, coating surfactants, and a bisvinylsulfonylmethyl ether as a gelatin hardening agent. The structure of the color coupler CC-1 is given below: [drawing 120]
as §1
The AgBrl tabular emulsion T-2 as described in Example 3 was sensitized as described in Example 10 except that the hydroxybenzene HB3 was added at the completion of the chemical sensitization procedure. For all the variations in Table XV the antifoggant and stabilizer tetraaazindene (TAI) was added to the emulsion melt in an amount of 1.75 g/mole Ag before any further addenda. The fragmentable electron donor compounds S-19, PMT-3, and PMT-4 were then added to the emulsion melt. The melts were then coated and tested as described in Example 10.

[8] = cited from earlier work
[9] = Example 16: photographic sensitivity and fog, color format, blue sensitized emulsion T-2
Description: as §2, §3, §1
The AgBrl tabular emulsion T-2 as described in Example 3 was sensitized as described in Example 10 except that the hydroxybenzene HB3 was added at the completion of the chemical sensitization procedure. For all the variations in Table XVI, the antifoggant and stabilizer tetraazaindene (TAI), was added to the emulsion melt in an amount of 1.75 g/mole Ag before any further addenda. The fragmentable two-electron donor compounds TU-2 and TU-3 were then added to the emulsion melt. The melts were then coated and tested as described in Example 10.

[10] = as above; conditions: control=100

In the case of `O=C1C(Cl)=C(Cl)C(=O)C(Cl)=C1Cl` [2,3,5,6-tetrachlorobenzoquinone], the “reduction potential (Ered)” value [1] is given as 0.00 V.

In the case of `O=C1C=C(Cl)C(=O)C=C1Cl` [2,5-dichlorobenzoquinone], the “reduction potential (Ered)” value [1] is given as -0.18 V.

For `CCSCCN(c1ccc(OC)cc1)C(C)C(=O)O` (stereo not shown) [Compound S-1, sodium salt], the “E1 (V) for XY moiety” value ([2]; Table H, model compound, A and L replaced by alkyl) was 0.22 V, the “E1 (V)” value ([2]; Table II) was 0.35 V and the “E2 (V) for XY moiety” value [3] was under -0.9 V. The “kfr (s^-1) for XY moiety” value [4] was 1.1e+06 s⁻¹, the Fog ([5]; 0.00022 x10^-3 mole/mole Ag) was 0.06 and the S365 ([5]; 0.00022 x10^-3 mole/mole Ag) was 107. For the same compound, the Fog ([5]; 0.00070 x10^-3 mole/mole Ag) was 0.28, the S365 ([5]; 0.00070 x10^-3 mole/mole Ag) was 89 and the Fog ([5]; 0.00220 x10^-3 mole/mole Ag) was 0.82. For the same compound, the “speed and fog change” value ([5]; undyed T-1 emulsion) was “both speed and fog increases”.

In the case of `CCSCCN(CC(=O)[O-])c1ccc(C)cc1.[Na+]` [Compound S-6, N-(4-Methylphenyl)-N-(2-ethylthio-ethyl)glycine sodium salt], the “E1 (V)” value ([2]; Table X) is reported as 0.45 V, the Fog ([6]; 0.022 x10^-3 mol/mol Ag) is reported as 0.14 and the “Photographic Sensitivity SWR2B” value ([6]; 0.022 x10^-3 mol/mol Ag) is reported as 120. For the same compound, the Fog ([6]; 0.07 x10^-3 mol/mol Ag) was 0.21 and the “Photographic Sensitivity SWR2B” value ([6]; 0.07 x10^-3 mol/mol Ag) was 126.

For `CC(C(=O)O)N(CC(=O)O)c1ccc(S(=O)(=O)N2CCSCC2)cc1` (stereo not shown) [Compound S-19], the Fog ([7]; 4.4 x10^-6 mol/mol Ag) was 0.06, the “Photographic Sensitivity SWR2B” value ([7]; 4.4 x10^-6 mol/mol Ag) was 115 and the Fog ([7]; 8.8 x10^-6 mol/mol Ag) was 0.08. For the same compound, the “Photographic Sensitivity SWR2B” value ([7]; 8.8 x10^-6 mol/mol Ag) was 112.

In the case of `N#Cc1c2ccccc2c(C#N)c2ccccc12` [DCA, 9,10-dicyanoanthracene], the “reduction potential (Ered)” value [1] is listed as -0.91 V.

In the case of `CC(C(=O)O)N(CCC(=O)Nc1cccc(-n2nnnc2S)c1)c1ccc(C=O)cc1` (stereo not shown) [PMT-3], the Fog ([7]; 0.045 x10^-6 mol/mol Ag) is reported as 0.07, the “Photographic Sensitivity SWR2B” value ([7]; 0.045 x10^-6 mol/mol Ag) is reported as 151 and the Fog ([7]; 0.14 x10^-6 mol/mol Ag) is reported as 0.08. The “Photographic Sensitivity SWR2B” value ([7]; 0.14 x10^-6 mol/mol Ag) was 151, the Fog ([7]; 0.45 x10^-6 mol/mol Ag) was 0.07 and the “Photographic Sensitivity SWR2B” value ([7]; 0.45 x10^-6 mol/mol Ag) was 141.

With `CC(C(=O)O)N(CC(=O)O)c1ccc(S(=O)(=O)Nc2cccc(-n3nnnc3S)c2)cc1` (stereo not shown) [PMT-4] the Fog ([7]; 0.14 x10^-6 mol/mol Ag) was 0.06, the “Photographic Sensitivity SWR2B” value ([7]; 0.14 x10^-6 mol/mol Ag) was 115 and the Fog ([7]; 0.45 x10^-6 mol/mol Ag) was 0.07. The “Photographic Sensitivity SWR2B” value ([7]; 0.45 x10^-6 mol/mol Ag) was 120.

For `[Cl][Sn][Cl]` [SnCl2], the oxidation potential ([8]; SnCl2, CRC Handbook) is listed as ~ -0.10 V.

In the case of `N#Cc1ccc2c(C#N)c3cc(C#N)ccc3c(C#N)c2c1` [TCA, tetracyanoanthracene], the “reduction potential (Ered)” value [1] is listed as -0.44 V.

For `CC(C(=O)O)N(CCC(=O)N(C)CCN(C)C(=S)N(C)C)c1ccccc1` (stereo not shown) [TU-2], the Fog ([9]; 0.45 x10^-6 mol/molAg) was 0.08, the Fog ([9]; 1.4 x10^-6 mol/molAg) was 0.09 and the Fog ([9]; 4.5 x10^-6 mol/molAg) was 0.11. The “Photographic Sensitivity SWR3B” value ([10]; 0.45 x10^-6 mol/molAg) was 118, the “Photographic Sensitivity SWR3B” value ([10]; 1.4 x10^-6 mol/molAg) was 135 and the “Photographic Sensitivity SWR3B” value ([10]; 4.5 x10^-6 mol/molAg) was 159.

`CC(C(=O)O)N(CCC(=O)N(C)CCN(C)C(=S)N(C)C)c1ccc(C=O)cc1` (stereo not shown) [TU-3] showed a Fog ([9]; 14 x10^-6 mol/molAg) of 0.09, a Fog ([9]; 45 x10^-6 mol/molAg) of 0.09 and a Fog ([9]; 140 x10^-6 mol/molAg) of 0.10. For the same compound, the “Photographic Sensitivity SWR3B” value ([10]; 14 x10^-6 mol/molAg) was 145, the “Photographic Sensitivity SWR3B” value ([10]; 45 x10^-6 mol/molAg) was 155 and the “Photographic Sensitivity SWR3B” value ([10]; 140 x10^-6 mol/molAg) was 166.

For `N#Cc1ccc2c(C#N)c3ccccc3c(C#N)c2c1` [TriCA, 2,9,10-tricyanoanthracene], the “reduction potential (Ered)” value [1] is given as -0.67 V.

For `B` [borohydride], the oxidation potential ([8]; literature) is given as -0.48 V vs SCE.

For `O=C1C=CC(=O)C(Cl)=C1` [chlorobenzoquinone], the “reduction potential (Ered)” value [1] is given as -0.34 V.
